“And” between values parts separate entries of the source, which are not always exact repeats. Equal values may be shown once. “Also recorded” adds a separate entry of the source.
Experiments:
[1] = cited from earlier work; for hepatic damage: long term use
C57BL/6 mice [2] = assay: LPS-mediated sepsis: cardiac function by 2D echocardiography (fractional shortening); assay type: in vivo
Description: (§1) LPS (5 mg/kg) (Sigma) was administered intraperitoneally (i.p.) in mice. Control mice were treated with equal volume of saline. Cardiac function was assessed by 2D echocardiography 5-6 hours post-LPS administration and mice were sacrificed 2-3 hours later (7-9 hours post-LPS injection).
(§2) Two-dimensional echocardiography was performed on conscious 10 to 12 week-old male and female (n=5-8 per group) mice (Sonos5500 system; Philips Medical Systems).^129Echocardiographic images were recorded in a digital format. Images were then analyzed off-line by a single observer blinded to the murine genotype.^130

C57BL/6 mice [3] = assay: Assessment of survival after lethal dose of LPS; assay type: in vivo
From the text: Control animals received saline and DMSO instead of LPS and rosiglitazone, respectively.

patients = settings: human, in vivo, 3 mg/kg/day; cited from earlier work
[4] = system: hearts of αMHC-PPARγ mice; assay: Cardiac mRNA levels in LPS-treated αMHC-PPARγ mice; assay type: in vivo
Description: (§3) All procedures involving animals were approved by the Institutional Animal Care and Use Committee at Columbia University. Mice were maintained under appropriate barrier conditions in a 12 hr light-dark cycle and received food and water ad libitum. The animals that were used for this study were C57BL/6 mice and mice expressing specifically in cardiomyocytes peroxisome proliferator activating receptor-γ (αMHC-PPARγ) that are also on the C57BL/6 background. All studies were performed on the different genotypes with littermates as controls. Hearts from these mice were harvested, flash frozen and stored at −80° C. until further use. All analyses involving animals were performed with at least 5 mice per experimental group.
as §1
(§4) Total RNA was purified from cells or hearts using the TRIzol reagent according to the instructions of themanufacturer (Invitrogen). cDNA was synthesized using the SuperScript III First-Strand Synthesis SuperMix (Invitrogen). cDNA was analyzed with quantitative real-time PCR that was performed with SYBR Green PCRCore Reagents (Stratagene). Incorporation of the SYBRgreen dye into the PCR products was monitored in real time withan Mx3000 sequence detection system (Stratagene). Samples were normalized against β-actin.

hearts of C57BL/6 mice [5] = assay: Cardiac ATP measurement; assay type: in vivo; settings: LPS 5 mg/kg, 6-8 h
Description: as §1

C57BL6 mice = assay: Plasma IL-6 protein levels after LPS; assay type: in vivo; settings: LPS 5 mg/kg, 6-8 h
Description: An animal model of cardiac septic shock was reproduced by treating 10 week old C57BL6 mice with LPS (5 mg/kg of body) for 6-8 h.

hearts of C57BL/6 mice [6] = assay: Cardiac mRNA levels by quantitative real-time PCR after LPS; assay type: in vivo
Description: as §1, §4

[7] = system: cardiac RNA from LPS-treated mice; assay: MiR array analysis of cardiac RNA; assay type: in vivo
From the text: The next experiment assessed whether the cardiac miR (microRNA) profiles of LPS-treated mice resemble the respective profiles in heart failure. (FIG. 5(A)-(C)).

AC16 cells = assay: PPARα gene expression in LPS-treated human cardiomyocyte cell line; assay type: cell-based; settings: LPS treatment alone
From the text: A human ventricular cardiomyocyte-derived cell line, designated AC-16, was kindly provided by M. M. Davidson.^126 Cells were maintained in Dulbecco's Modified Eagle Medium: Nutrient Mixture F-12 (Ham) (DMEM:F12) (Invitrogen) supplemented with fetal bovine serum (10%) and a mixture of penicillin and streptomycin (1%). Prior to infection with recombinant adenoviruses the medium was changed to 2% heat inactivated horse serum and the cells were infected in at least duplicates with control adenovirus that expresses the Green Fluorescent Protein (Ad-GFP) or the adenovirus expressing the constitutively active form of JNK2 (Ad-JNK2α2) at a multiplicity of infection (MOI) of 10. […] To assess gene expression 48 hours post incubation, cell lysates were collected and analyzed for mRNA and protein expression.
as §4, with “Samples were normalized against β-actin.” left out

[8] = system: hearts of αMHC-PPARγ mice; assay: Cardiac ATP levels in αMHC-PPARγ mice; assay type: in vivo; settings: LPS-treated αMHC-PPARγ mice
Description: as §1
Cardiac pieces of 10 mg were used to determine ATP levels. Heart pieces were dissolved in ice-cold 0.1% trichloro-acetic acid and centrifuged. Supernatant was resuspended in 50 mM Tris-acetate containing 2 mM EDTA, pH 7.8 and a portion was used to measure ATP. The measurement was performed with the ATP determination kit (Invitrogen) according to the instructions of the manufacturer.

[9] = system: cardiac muscle of αMHC-PPARγ mice; assay: [3H]palmitic acid oxidation in cardiac muscle of αMHC-PPARγ mice; assay type: in vivo; settings: LPS-treated vs saline-treated αMHC-PPARγ mice
Description: as §1
FA oxidation was measured in pieces of hearts isolated from 10-12 week old mice. The heart pieces were incubated at 37° C. for 2 h in modified Krebs-Ringerbuffer (MKR: 115 mM NaCl, 2.6 mM KCl, 1.2 mM KH2PO4, 10 mM NaHCO3,10 mM HEPES, pH 7.4) that contained 2% BSA, […] palmitate and 10 μCi/ml 9,10(n)-[^3H]-palmitate and was gassed with 95% O2 and 5% CO2. Water was then extracted with chloroform:methanol (2:1) extraction. Palmitate oxidation was determined by measuring the amount of ^3H2O in the aqueous phase.

hearts of C57BL/6 mice [10] = assay: Cardiac mRNA levels by quantitative real-time PCR after LPS; assay type: in vivo; settings: LPS 5 mg/kg, 6-8 h
[11] = system: hearts of αMHC-PPARγ mice; assay: Western blot of pAMPK and pJNK in hearts of αMHC-PPARγ mice; assay type: in vivo
Description: as §1
(§5) Isolated heart tissues or cells were homogenized in PBS containing protease inhibitors and phosphatase inhibitors (Roche, Indianapolis, Ind.). Membrane and cytosolic fractions were separated by ultracentrifugation.20 μg from each fraction was applied to SDS-PAGE and transferred onto nitrocellulose membranes. Antibodies were obtained from Santa Cruz (JNK) and Cell Signaling (phospho-JNK, phospho-AMPK^Thr 172 and total AMPK).

hearts of C57BL/6 mice [12] = assay: Western blot of pJNK, p-cJun and pAMPK in hearts; assay type: in vivo; settings: LPS 5 mg/kg; controls (label LPS) or animals given rosiglitazone 35 mg/kg (label rosiglitazone)
Description: as §1, §5

[13] = system: cardiac muscle of C57BL/6 mice; assay: FA oxidation ([3H]palmitate oxidation) in heart pieces; assay type: in vivo; settings: LPS 5 mg/kg, 6-8 h
Description: as §1

[14] = system: cardiac tissue from C57BL/6 mice; assay: Electron microscopy of cardiac mitochondria; assay type: in vivo; settings: LPS vs saline
From the text: Left ventricles from 3-month-old mice were fixed with 2.5% glutaraldehyde in 0.1 M Sorensen's buffer (0.2 M monobasic phosphate/0.2 M dibasic phosphate, 1:4 vol/vol; pH 7.2), postfixed in osmium tetroxide, and embedded in EPON 812 (Electron Microscopy Sciences). Ultrathin sections were stained with uranyl acetate and lead citrate and examined under a JEM-1200ExII electron microscope (JEOL).

αMHC-PPARγ mice = assay: LPS in αMHC-PPARγ mice: 2D echocardiography (fractional shortening); assay type: in vivo; settings: LPS-treated αMHC-PPARγ mice
Description: as §3, §1, §2

[15] = LPS 15 mg/kg, + DMSO (15 mice, F) or + rosiglitazone 33 mg/kg/day (17 mice, M)
[16] = Saline (no LPS) + rosiglitazone 33 mg/kg/day, 8 mice, M

In the case of `CCc1ccc(CCOc2ccc(CC3SC(=O)NC3=O)cc2)nc1` (stereo not shown) [Pioglitazone, pioglitazone], the “deleterious effects on blood lipids” value ([1]; in vivo) is given as “fewer deleterious effects on blood lipids”.

With `Cc1cccc(Nc2cc(Cl)nc(SCC(=O)O)n2)c1C` [WY-14643] the “improved fractional shortening by” value (C57BL/6 mice [2]; LPS 5 mg/kg + WY-14643 30 mg/kg, trend, p=0.09) was 25%.

With `CN(CCOc1ccc(CC2SC(=O)NC2=O)cc1)c1ccccn1` (stereo not shown) [rosiglitazone] the “Survivors 24 h” value (C57BL/6 mice [3]; [15]) was 17, the “Survivors 36 h” value (C57BL/6 mice [3]; [15]) was 16 and the “Survivors 48 h” value (C57BL/6 mice [3]; [15]) was 16. For the same molecule, the “Survivors 60 h” value (C57BL/6 mice [3]; [15]) was 15, the “Survivors 72 h” value (C57BL/6 mice [3]; [15]) was 13 and the “Survivors 24 h” value (C57BL/6 mice [3]; [16]) was 8. For the same molecule, the “Survivors 36 h” value (C57BL/6 mice [3]; [16]) was 8, the “Survivors 48 h” value (C57BL/6 mice [3]; [16]) was 8 and the “Survivors 60 h” value (C57BL/6 mice [3]; [16]) was 8. The “Survivors 72 h” value (C57BL/6 mice [3]; [16]) was 8 and the hepatic damage [1] was “cause hepatic damage with long term use”.

In the case of `Cc1c(C)c2c(c(C)c1O)CCC(C)(COc1ccc(CC3SC(=O)NC3=O)cc1)O2` (stereo not shown) [troglitazone], the hepatic damage [1] is listed as “cause hepatic damage with long term use”.

For Oblimersen, the “adverse effects in patients” value (patients) is listed as “no severe adverse effects”.

With lipopolysaccharide [LPS] the “UCP2 mRNA increase” value ([4]; LPS) was 23.7 fold, the “UCP3 mRNA increase” value ([4]; LPS) was 17.4 fold and the “PDK4 mRNA increase” value ([4]; LPS 5 mg/kg) was 5.4 fold. For the same molecule, the “cardiac CD36 gene expression, reduced by” value ([4]; LPS 5 mg/kg) was 93%, the “cardiac IL-1α mRNA increase” value ([4]; LPS 5 mg/kg) was 23.1 fold and 23 fold and the “cardiac IL-6 mRNA increase” value ([4]; LPS 5 mg/kg) was 288 fold and 285 fold. The “cardiac PGC-1β gene expression, reduced by” value ([4]; LPS 5 mg/kg) was 76%, the “cardiac TNFα mRNA increase” value ([4]; LPS 5 mg/kg) was 12.5 fold and the “estrogen-related receptor (ERR)α mRNA” value ([4]; LPS 5 mg/kg) was “not modulated”. The “perilipin 2 mRNA” value ([4]; LPS 5 mg/kg) was “not modulated”, the “perilipin 5 mRNA, reduced by” value ([4]; LPS 5 mg/kg) was 50% and the “AOX mRNA increase” value ([4]; LPS 5 mg/kg vs saline) was 27.1 fold. The “Cpt1β mRNA increase” value ([4]; LPS 5 mg/kg vs saline) was 14.3 fold, the “PGC-1α mRNA increase” value ([4]; LPS 5 mg/kg vs saline) was 30.1 fold and the “PPARγ mRNA increase” value ([4]; LPS 5 mg/kg vs saline) was 31.6 fold. For the same molecule, the “PPARδ mRNA increase” value ([4]; LPS 5 mg/kg vs saline) was 31.6 fold, the “cardiac PPARα mRNA reduction” value ([4]; LPS 5 mg/kg vs saline) was 77% and 78% and the “cardiac ATP, reduced by” value (hearts of C57BL/6 mice [5]) was 44%. The “plasma IL-6 protein levels” value (C57BL6 mice) was “increased”, the “PDK4 mRNA increase” value (hearts of C57BL/6 mice [6]; LPS 5 mg/kg alone) was 16 fold and the “cardiac AOX mRNA, increased by” value (hearts of C57BL/6 mice [6]; LPS 5 mg/kg alone) was 42%. The “cardiac PPARα mRNA levels, reduced by” value (hearts of C57BL/6 mice [6]; LPS 5 mg/kg alone) was 78%, the “cardiac perilipin 2 mRNA, increased by” value (hearts of C57BL/6 mice [6]; LPS 5 mg/kg alone) was 3.3 and the “cardiac IL-1α mRNA increase” value (hearts of C57BL/6 mice [6]; LPS 5 mg/kg alone, qRT-PCR) was 90 fold. For the same molecule, the “cardiac IL-6 mRNA increase” value (hearts of C57BL/6 mice [6]; LPS 5 mg/kg alone, qRT-PCR) was 1250 fold, the “cardiac TNFα mRNA increase” value (hearts of C57BL/6 mice [6]; LPS 5 mg/kg alone, qRT-PCR) was 26 fold and the “cardiac PPARγ (mRNA) levels, increased by” value (hearts of C57BL/6 mice [6]; LPS alone, normal C57BL/6 mice) was ~60% and 57%. For the same molecule, the “gene expression levels of αMHC and βMHC” value (hearts of C57BL/6 mice [6]; LPS, hearts of C57BL/6 mice) was “reduces both αMHC and βMHC”, the “switch from α-MHC isoform to β-MHC (cardiac mRNA)” value (hearts of C57BL/6 mice [6]; LPS-treated mice) was “did not indicate such change” and the “cardiac PPARδ mRNA” value (hearts of C57BL/6 mice [6]; any of the treatment groups (rosiglitazone 35 mg/kg, LPS 5 mg/kg, both)) was “not modulated”. The “miRs associated with heart failure (miR-1, -133, -208, -195, -24, -125b, -199a, 214) affected” value [7] was “none”, the “PPARα expression in human cardiomyocyte cell line” value (AC16 cells) was “reduces PPARα expression” and the “cardiac ATP content” value [8] was “significantly increased”. For the same molecule, the “cardiac ATP levels, increase” value [8] was 2.2 fold, the “Survivors 24 h” value (C57BL/6 mice [3]; [15]) was 14 and the “Survivors 36 h” value (C57BL/6 mice [3]; [15]) was 14. The “Survivors 48 h” value (C57BL/6 mice [3]; [15]) was 10, the “Survivors 60 h” value (C57BL/6 mice [3]; [15]) was 5 and the “Survivors 72 h” value (C57BL/6 mice [3]; [15]) was 2. The “start of dying post-injection” value (C57BL/6 mice [3]; LPS alone 15 mg/kg i.p.) was 36 h, the “levels of FAO, increase” value [9] was 2.6 fold and the “cardiac gene expression of inflammation-associated genes (IL-1α, IL-6 and TNFα)” value (hearts of C57BL/6 mice [10]) was “increased”. For the same molecule, the “mRNA levels for cardiac PPARα, CD36, LpL, FATP, Cpt1β, PGC-1α and PGC-1β” value (hearts of C57BL/6 mice [10]) was “reduced”, the “reduction in fractional shortening” value (C57BL/6 mice [2]; LPS 5 mg/kg alone vs saline, 2D-echocardiography) was 50% and the “fractional shortening, effect of LPS” value (C57BL/6 mice [2]; LPS 5 mg/kg of body, 6-8 h, 10 week old mice) was “reduced fractional shortening”. The JNK activation ([11]; LPS 5 mg/kg, αMHC-PPARγ mice) was “activated JNK”, the “phosphorylated AMPK levels” value ([11]; LPS-treated αMHC-PPARγ mice) was “reduced” and the “phospho-AMPK in heart after LPS” value (hearts of C57BL/6 mice [12]) was “not stimulated; also recorded: reduced phospho-AMPK”. For the same molecule, the “phosphorylation/activation of JNK (and c-Jun) in heart after LPS” value (hearts of C57BL/6 mice [12]) was “induced phosphorylation of JNK; also recorded: activated”, the “FAO, reduced by” value [13] was 61% and the “morphology and intracellular arrangement of mitochondria” value [14] was “did not affect”. The “fractional shortening / cardiac function” value (αMHC-PPARγ mice) was “remained normal; also recorded: preserved”.
